Here are results for twelve compounds from ChEMBL document CHEMBL1201862, “PubChem BioAssay data set” (2004).

Some test systems named below: HCT-116; HL-60; HOP-92; HT-29; Hs-578T; IGROV-1; MCF7; Malme-3M; NCI-H226; OVCAR-3; OVCAR-4; OVCAR-5; OVCAR-8; SF-295; SK-MEL-28; SN12C; TK-10; UACC-257; NCI/ADR-RES.
Holding throughout (assay): NCI tumour cell line growth inhibition, 48 h

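How tested: cells in 96-well plates exposed to compound for 48 hours at five concentrations. GI50 marks 50% less growth.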 The source made the active and inactive calls. Rule as the data show it: active = GI50 up to about 1.1 µM and inactive = higher. Where only a bound is given, the exact number is not on record here.

Consider `CCOC(=O)c1cnn2c1ncc1c(=O)n(NC(N)=O)ccc12`, for which the GI50 with HCT-116, in the assay with HL-60, in the assay on HOP-92, with HT-29, with Hs-578T and in the assay on IGROV-1 was > 100 µM (inactive) in each case. Further, the GI50 in the assay with MCF7, in the assay on Malme-3M, with NCI-H226, with OVCAR-3, in the assay with OVCAR-4 and in the assay on OVCAR-5 was > 100 µM (inactive) each time. For the same compound, the GI50 in the assay with OVCAR-8, in the assay with SF-295, with SK-MEL-28, in the assay on SN12C, in the assay on TK-10 and with UACC-257 was > 100 µM (inactive) in each case.
Take `Cc1ccc(C)n1-n1c(Cc2ccc(Cl)cc2)n[nH]c1=O`: the GI50 in the assay on HCT-116 was 53.3 µM (inactive); with HT-29 it was 73.8 µM (inactive); in the assay with Hs-578T, > 100 µM (inactive); in the assay with IGROV-1, > 100 µM (inactive); with MCF7, 90.4 µM (inactive); in the assay with Malme-3M, 92.5 µM (inactive). Besides, the GI50 is 84.7 µM (inactive) with NCI-H226; 40.8 µM (inactive) in the assay on NCI/ADR-RES; 54.5 µM (inactive) in the assay with OVCAR-3; > 100 µM (inactive) with OVCAR-4; > 100 µM (inactive) with OVCAR-5; 77.4 µM (inactive) in the assay with OVCAR-8. For the same compound, the GI50 with SF-295 was 66.2 µM (inactive); with SK-MEL-28, > 100 µM (inactive); in the assay on SN12C, > 100 µM (inactive); in the assay on TK-10 it was > 100 µM (inactive); with UACC-257 it was 74.8 µM (inactive).
Turning to `COc1cc(C(=O)N(C(=O)N2CCCCC2)c2ccccc2)cc(OC)c1OC`, the GI50 with HCT-116, with HOP-92, in the assay with IGROV-1, in the assay with MCF7, in the assay on NCI-H226 and in the assay with NCI/ADR-RES was > 100 µM (inactive) in each case. Moreover, the GI50 in the assay with OVCAR-3, in the assay with OVCAR-5, with OVCAR-8, in the assay with SF-295, in the assay on SK-MEL-28 and in the assay on SN12C was > 100 µM (inactive) each time. Moreover, the GI50 in the assay on UACC-257 was > 100 µM (inactive).
Take `O=C(CC(=O)n1nc(-c2ccccc2)c(/N=N/c2ccccc2C(=O)O)c1-c1ccccc1)Nc1ccc(Cl)cc1`: the GI50 in the assay with HCT-116 was 17.9 µM (inactive); in the assay on HL-60, 10.2 µM (inactive); in the assay with HOP-92, 5.9 µM (inactive); in the assay on HT-29, 34.2 µM (inactive); in the assay with Hs-578T, 35.6 µM (inactive); with IGROV-1, 1.5 µM (inactive). Besides, the GI50 with MCF7 is 30.3 µM (inactive); in the assay with Malme-3M, 75 µM (inactive); in the assay on NCI-H226 it was 30.6 µM (inactive); in the assay with OVCAR-5, 43 µM (inactive); in the assay with OVCAR-8, 36.8 µM (inactive); in the assay on SK-MEL-28 it was 52.8 µM (inactive). In addition, the GI50 in the assay on TK-10 is > 100 µM (inactive); in the assay on UACC-257, 32 µM (inactive).
Consider `COc1cc(OC)c(C2c3cc4c(cc3OC(N3CCOCC3)C2C)OCO4)c(OC)c1` (stereo not given), for which the GI50 in the assay on HCT-116 is 7.4 µM (inactive); in the assay with HT-29, 21.9 µM (inactive); in the assay on Hs-578T it was 2.45 µM (inactive); in the assay on IGROV-1 it was 22.1 µM (inactive); with MCF7 it was 37.8 µM (inactive); in the assay with NCI/ADR-RES, 34.8 µM (inactive). Besides, the GI50 in the assay on OVCAR-3 was 7.29 µM (inactive); in the assay on OVCAR-5, 65.5 µM (inactive); in the assay with OVCAR-8 it was 43.6 µM (inactive); in the assay on SF-295, 14.7 µM (inactive); in the assay with SK-MEL-28, > 100 µM (inactive); in the assay on SN12C, 67 µM (inactive). Moreover, the GI50 in the assay with TK-10 is > 100 µM (inactive); in the assay with UACC-257 it was 78.7 µM (inactive).
Regarding `O=C(O)[C@@H]1C2CC([C@@H]1C(=O)O)[C@H](N1C(=O)CCC1=O)[C@@H]2Br` (stereo not given in full), the GI50 with HCT-116, in the assay with HL-60, in the assay on HOP-92, in the assay with HT-29, with Hs-578T and in the assay with IGROV-1 was > 100 µM (inactive) throughout. Also, the GI50 in the assay on Malme-3M, in the assay on NCI-H226, in the assay with NCI/ADR-RES, with OVCAR-3, with OVCAR-4 and with OVCAR-5 was > 100 µM (inactive) throughout. Further, the GI50 in the assay on OVCAR-8, with SF-295, in the assay on SK-MEL-28, in the assay on SN12C, in the assay on TK-10 and in the assay on UACC-257 was > 100 µM (inactive) throughout.
`CC[N+](C)(CC)CCNC(=O)C(O)(c1ccccc1)c1ccccc1`: the GI50 in the assay on HCT-116, in the assay on HL-60, with HOP-92, in the assay on HT-29, in the assay on IGROV-1 and with MCF7 was > 100 µM (inactive) throughout. In addition, the GI50 in the assay with Malme-3M, in the assay with NCI-H226, with NCI/ADR-RES, in the assay with OVCAR-3, in the assay on OVCAR-4 and in the assay on OVCAR-5 was > 100 µM (inactive) each time. The GI50 with OVCAR-8, in the assay with SF-295, with SK-MEL-28, in the assay on SN12C, in the assay on TK-10 and in the assay with UACC-257 was > 100 µM (inactive) in each case.
On to `COc1ccc(C2N(c3ccc(C)c(N=C=O)c3)C(=O)N3C(c4ccc(OC)cc4)N(c4ccc(C)c(N=C=O)c4)C(=O)N23)cc1` (stereo not given), for which the GI50 with HCT-116 is > 100 µM (inactive); in the assay with HL-60, > 100 µM (inactive); in the assay on HOP-92 it was 83.2 µM (inactive); in the assay on HT-29, > 100 µM (inactive); with IGROV-1, 38.9 µM (inactive); in the assay on MCF7, > 100 µM (inactive). The GI50 was 25.8 µM (inactive) in the assay on Malme-3M; > 100 µM (inactive) in the assay with NCI-H226; > 100 µM (inactive) in the assay on NCI/ADR-RES; > 100 µM (inactive) with OVCAR-3; > 100 µM (inactive) in the assay on OVCAR-4; > 100 µM (inactive) in the assay on OVCAR-5. Further, the GI50 with OVCAR-8, in the assay on SF-295, in the assay on SK-MEL-28, in the assay on SN12C, in the assay on TK-10 and with UACC-257 was > 100 µM (inactive) in each case.
`CCOC(=O)CCC(NC(=O)C(CCC(=O)OCC)NC(=O)C(Cc1ccc([N+](=O)[O-])cc1)NC(C)=O)C(=O)NNC(=O)OC(C)(C)C` (stereo not given): the GI50 with HCT-116, with HL-60, with HOP-92, in the assay with HT-29, in the assay with Hs-578T and in the assay on IGROV-1 was > 100 µM (inactive) each time. Also, the GI50 in the assay on MCF7, in the assay with Malme-3M, in the assay with NCI-H226, in the assay on OVCAR-5, in the assay with OVCAR-8 and in the assay with SK-MEL-28 was > 100 µM (inactive) in each case. In addition, the GI50 in the assay on SN12C, with TK-10 and in the assay on UACC-257 was > 100 µM (inactive) in each case.
As for `COC(=O)[C@@H]1O[C@]12C(CO[Si](C)(C)C(C)(C)C)OC(n1ccc(=O)[nH]c1=O)C2O[Si](C)(C)C(C)(C)C` (stereo not given in full), the GI50 in the assay on HCT-116 is 23.3 µM (inactive); in the assay on HL-60, 10.1 µM (inactive); with HOP-92, 27.4 µM (inactive); in the assay on HT-29, 7.93 µM (inactive); in the assay on IGROV-1 it was 17.7 µM (inactive); in the assay on MCF7, 12.4 µM (inactive). Besides, the GI50 is 0.435 µM (active) in the assay with NCI-H226; 30.8 µM (inactive) in the assay with NCI/ADR-RES; 16.7 µM (inactive) in the assay with OVCAR-3; 45.7 µM (inactive) in the assay on OVCAR-4; 25.1 µM (inactive) in the assay on OVCAR-5; 30.9 µM (inactive) with OVCAR-8. Also, the GI50 in the assay with SF-295 is 21.8 µM (inactive); in the assay with SK-MEL-28 it was 25.5 µM (inactive); in the assay on SN12C, 30.6 µM (inactive); in the assay with TK-10 it was 27.1 µM (inactive); with UACC-257, 22.1 µM (inactive).
For the compound `O=C1Nc2ccccc2C(=O)/C1=C/NC(=S)NCc1ccccc1`, the GI50 in the assay with HCT-116, in the assay on HL-60, in the assay on HOP-92, with HT-29, with IGROV-1 and with MCF7 was > 100 µM (inactive) each time. The GI50 in the assay with NCI-H226, in the assay with NCI/ADR-RES, in the assay with OVCAR-3, in the assay on OVCAR-5, in the assay on OVCAR-8 and with SF-295 was > 100 µM (inactive) each time. The GI50 in the assay with SK-MEL-28, with SN12C, with TK-10 and with UACC-257 was > 100 µM (inactive) throughout.
Turning to `CC(=O)Oc1ccc2c(C)cc(=O)oc2c1OC(C)=O`, the GI50 in the assay on HCT-116 is 32.7 µM (inactive); in the assay on HT-29 it was 29.9 µM (inactive); with Hs-578T it was 24.2 µM (inactive); with IGROV-1, 22.3 µM (inactive); in the assay on MCF7 it was 49.4 µM (inactive); in the assay with Malme-3M it was 17.6 µM (inactive). For the same compound, the GI50 was 30.6 µM (inactive) in the assay on NCI-H226; 24.2 µM (inactive) with NCI/ADR-RES; 40.4 µM (inactive) in the assay with OVCAR-3; 46.8 µM (inactive) in the assay on OVCAR-4; 93.5 µM (inactive) in the assay with OVCAR-5; 27 µM (inactive) in the assay on OVCAR-8. Also, the GI50 in the assay with SF-295 was 47.5 µM (inactive); in the assay with SK-MEL-28 it was 33.9 µM (inactive); in the assay on SN12C, 57.8 µM (inactive); in the assay with TK-10, 24.2 µM (inactive); with UACC-257 it was 17.7 µM (inactive).
